Data published in US20030176401A1, “Sodium salt of an azo derivative of 5-aminosalicylic acid” (priority 2000, published 2003).

Columns and labels:
[1] = Azoreduction after oral administration: distribution of product and UR-12715 in faeces, study in rats; assay type: in vivo, Sprague-Dawley rats; conditions: for relative percentage of Product (administered compound) found in faeces: female rats, 50 mg/kg oral, suspension in 0.2% CMC, mean of 3; for azoreduction after oral administration: rats
Description: (§1) The level of azoreduction has been studied by determining the distribution of UR-12746 and UR-12715 in faeces after the oral administration of UR-12746 and its sodium salt in rats and monkeys.
For the study in rats, 6 female Sprague-Dawley rats weighing between 169 and 185 g were used. UR-12746 and the sodium salt of UR-12746 (polymorph I) were orally administered to three rats each as a suspension in 0.2% carboxymethylcelulose (CMC), at a dose of 50 mg/kg (100 mg of test compound/10 mL of 0.2% CMC).
The rats were placed in metabolic cages, so that urine and faeces could be separately collected, and faeces were collected during the periods 0-24 h and 24-48 h. The faeces collected in the same period were weighted and crumbled. Water was added (2 mL of water/g of faeces) and the paste obtained was stirred to homogeneity. The total weight of the homogenate was then determined.
An aliquot of this homogenate (about 2 g) was mixed with 4 mL of MeOH, stirred in a Vortex and centrifuged for 10 minutes at 4500 rpm (3000 g). The supernatant was filtered through a 0.45 μm filter, and the concentrations of the administered product and metabolite present in the sample were determined by a HPLC chromatographic method with gradient elution and ultraviolet detection, under the conditions detailed below:
The level of azoreduction was determined from the amounts of product and UR-12715 recovered in faeces. The relative percentage of the amounts corresponding to the product (UR-12746 or sodium salt of UR-12746) and to the metabolite (UR-12715) found in faeces after oral administration are shown in Table 3. Results are given as the mean values.

[2] = Azoreduction after oral administration: distribution of product and UR-12715 in faeces, study in monkeys; assay type: in vivo, Cynomolgus monkeys; conditions: for relative percentage of Product (administered compound) found in faeces: 100 mg/kg p.o. (UR-12746 suspension in 0.2% CMC; sodium salt capsules)
Description: as §1
6 Cynomolgus monkeys were used for this study. Each test product was administered to three monkeys, respectively. UR-12746 was administered as a suspension in 0.2% CMC, at a dose of 100 mg/kg p.o. (1000 mg UR-12746/10 mL of 0.2% CMC), whereas the sodium salt of UR-12746 (polymorph I) was administered as individualized capsules for each animal at a dose of 100 mg/kg p.o.
The monkeys were placed in metabolic cages, so that urine and faeces could be separately collected, and faeces corresponding to the periods 0-24 h, 24-48 h and 48-72 h were collected.
The treatment of the faeces and the determination of the amount of administered product and metabolite present in the samples were carried out following the same procedure described above for the study in rats.
As in the rat study, the azoreduction level was determined from the amounts of product and UR-12715 recovered in faeces.

Row | relative percentage of Product (administered compound) found in faeces ([1]; faeces 0-24 h) [%] | relative percentage of Product (administered compound) found in faeces ([1]; faeces 0-48 h) [%] | relative percentage of Product (administered compound) found in faeces ([1]; faeces 24-48 h) [%] | azoreduction after oral administration [1] | relative percentage of Product (administered compound) found in faeces ([2]; faeces 0-24 h) [%] | relative percentage of Product (administered compound) found in faeces ([2]; faeces 0-72 h) [%] | relative percentage of Product (administered compound) found in faeces ([2]; faeces 24-48 h) [%] | relative percentage of Product (administered compound) found in faeces ([2]; faeces 48-72 h) [%] | azoreduction (metabolization in the colon) after oral administration [2] | SMILES
1 | 78.8 | 76.1 | 52.5 | 24% | >99 | >99 | >99 | >99 | no azoreduction | Cc1nc2cnccc2n1CC1CCN(C(=O)/C=C(/c2ccccc2)c2ccc(N=Nc3ccc(O)c(C(=O)O)c3)cc2)CC1 [UR-12746, (Z)-2-hydroxy-5-[[4-[3-[4-[(2-methyl-1H-imidazo[4,5-c]pyridin-1-yl)methyl]-1-piperidinyl]-3-oxo-1-phenyl-1-propenyl]phenyl]azo]benzoic acid]
2 | 21.1 | 20.8 | 12.1 | around 79% | 12.6 | 9.7 | 6.5 | 5.0 | around 90% | Cc1nc2cnccc2n1CC1CCN(C(=O)/C=C(/c2ccccc2)c2ccc(N=Nc3ccc(O)c(C(=O)[O-])c3)cc2)CC1.[Na+] [Sodium salt of UR-12746, sodium salt of (Z)-2-hydroxy-5-[[4-[3-[4-[(2-methyl-1H-imidazo[4,5-c]pyridin-1-yl)methyl]-1-piperidinyl]-3-oxo-1-phenyl-1-propenyl]phenyl]azo]benzoic acid]
